Reference: patent US9783537B2, “3-(4-ethylnylphenyl) pyridopyrimidinone compounds and process for preparation thereof useful as potential anticancer agents” (Council of Scientific & Industrial Research, priority 2013, dated 2017)
Entries after “also recorded” stand apart in the source; their conditions may differ. Where two headings read alike, the source gives them in different places.

What was measured:
SR = assay: SRB 48 h growth assay, Leukemia SR; format: cell-based, human; conditions: Homo sapiens; for CC50: read-out: Log10 LC50 (converted)
MOLT-4 = assay: SRB 48 h growth assay, Leukemia MOLT-4; format: cell-based, human; conditions: MOLT-4, Leukemia; for GI50 / CC50: Homo sapiens; for CC50: read-out: Log10 LC50 (converted)
[1] = system: sixty human cancer cell lines; assay: anticancer activity against sixty human cancer cell lines (NCI)
Description: The compounds were evaluated for anticancer activity against sixty human cancer cells derived from nine cancer types (leukemia cell line, non-small-cell lung cell line, colon cell line, CNS cell line, melanoma cell line, ovarian cell line, prostate cell line, renal cell line and breast cancer cell line) as shown in Table 1. For each compound, dose response curves for each cell line were measured at a minimum of five concentrations at 10 fold dilutions. A protocol of 48 h continuous drug exposure was used and a sulforhodamine B (SRB) protein assay was used to estimate cell viability or growth.

HCT-15 = assay: SRB 48 h growth assay, Colon HCT-15; format: cell-based, human; conditions: HCT-15, Colon; for GI50: Homo sapiens
CAKI-1 = assay: SRB 48 h growth assay, Renal CAKI-1; format: cell-based, human; conditions: CAKI-1, Renal
OVCAR-5 = assay: SRB 48 h growth assay, Ovarian OVCAR-5; format: cell-based, human; conditions: OVCAR-5, Ovarian; for GI50: Homo sapiens
A498 = assay: SRB 48 h growth assay, Renal A498; format: cell-based, human; conditions: for GI50: Homo sapiens
SK-MEL-2 = assay: SRB 48 h growth assay, Melanoma SK-MEL-2; format: cell-based, human; conditions: SK-MEL-2, Melanoma; for GI50: Homo sapiens
T-47D = assay: SRB 48 h growth assay, Breast T-47D; format: cell-based, human; conditions: for GI50: Homo sapiens, T47D
MALME-3M = assay: SRB 48 h growth assay, Melanoma MALME-3M; format: cell-based, human
U251 = assay: SRB 48 h growth assay, CNS U251; format: cell-based, human
NCI-H460 = assay: SRB 48 h growth assay, Non-small Cell Lung NCI-H460; format: cell-based, human; conditions: for GI50: Homo sapiens
SN12C = assay: SRB 48 h growth assay, Renal SN12C; format: cell-based, human
SF-268 = assay: SRB 48 h growth assay, CNS SF-268; format: cell-based, human; conditions: SF-268, CNS
HT-29 = assay: SRB 48 h growth assay, Colon HT-29; format: cell-based, human; conditions: HT-29, Colon
HCC-2998 = assay: SRB 48 h growth assay, Colon HCC-2998; format: cell-based, human; conditions: HCC-2998, Colon
[2] = read-out: Growth Inhibition GI50
[3] = read-out: Log10 GI50 (converted)
[4] = Homo sapiens, read-out: Growth Inhibition GI50
[5] = Homo sapiens, read-out: Log10 GI50 (converted)
[6] = Homo sapiens, read-out: Log10 LC50 (converted)

`C#Cc1ccc(-n2c(/C=C/c3ccc(Cl)c(F)c3)nc3ncccc3c2=O)cc1` [4g, (E)-2-(4-chloro-3-fluorostyryl)-3-(4-ethynylphenyl)pyrido[2,3-d]pyrimidin-4(3H)-one] was tested, and the GI50 (SR; [2]) was 330 nM, the GI50 (SR; [3]) was 331 nM and the CC50 (SR) was over 100 µM. For the same compound, the GI50 (MOLT-4; [2]) was 540 nM, the GI50 (MOLT-4; [3]) was 550 nM and the CC50 (MOLT-4) was over 100 µM. The “Log10 TGI50” value (MOLT-4) was over −4.00 and the “anticancer activity (in words)” value [1] was “highest anticancer activity; also recorded: good profile at nanomolar range growth inhibition activity in several cancer cell lines”.

For `C#Cc1ccc(-n2c(/C=C/c3ccc4ccccc4n3)nc3ncccc3c2=O)cc1` [4t, (E)-3-(4-Ethynylphenyl)-2-(2-(quinolin-2-yl)vinyl)pyrido[2,3-d]pyrimidin-4(3H)-one], the “Log10 TGI50” value (HCT-15) was −5.88, the GI50 (HCT-15; [2]) was 320 nM and the GI50 (HCT-15; [3]) was 331 nM. For the same compound, the “Log10 TGI50” value (CAKI-1) was −5.81, the GI50 (CAKI-1; [4]) was 320 nM and the GI50 (CAKI-1; [5]) was 324 nM. For the same compound, the CC50 (CAKI-1; [6]) was over 100 µM, the GI50 (OVCAR-5; [2]) was 310 nM and the GI50 (OVCAR-5; [3]) was 309 nM. The “Log10 TGI50” value (OVCAR-5) was −5.97, the “Log10 TGI50” value (A498) was −6.14 and the GI50 (A498; [2]) was 220 nM. It also gave a GI50 (A498; [3]) of 229 nM, a GI50 (SK-MEL-2; [2]) of 410 nM and a GI50 (SK-MEL-2; [3]) of 417 nM. The “Log10 TGI50” value (SK-MEL-2) was −5.80, the “Log10 TGI50” value (T-47D) was −6.05 and the GI50 (T-47D; [2]) was 290 nM. The GI50 (T-47D; [3]) was 295 nM, the “Log10 TGI50” value (MALME-3M) was −5.50 and the GI50 (MALME-3M; [4]) was 1210 nM. For the same compound, the GI50 (MALME-3M; [5]) was 1200 nM, the CC50 (MALME-3M; [6]) was 8.32 µM and the “Log10 TGI50” value (U251) was −5.84. For the same compound, the GI50 (U251; Homo sapiens, U-251, read-out: Growth Inhibition GI50) was 340 nM, the GI50 (U251; Homo sapiens, U-251, read-out: Log10 GI50 (converted)) was 339 nM and the CC50 (U251; Homo sapiens, U-251, read-out: Log10 LC50 (converted)) was 8.13 µM. The “Log10 TGI50” value (NCI-H460) was −6.03, the GI50 (NCI-H460; [2]) was 290 nM and the GI50 (NCI-H460; [3]) was 302 nM. It also gave a GI50 (SR; [2]) of 270 nM, a GI50 (SR; [3]) of 275 nM and a CC50 (SR) of over 100 µM. For the same compound, the GI50 (MOLT-4; [2]) was 450 nM, the GI50 (MOLT-4; [3]) was 457 nM and the CC50 (MOLT-4) was over 100 µM. For the same compound, the “Log10 TGI50” value (MOLT-4) was over −4.00, the “Log10 TGI50” value (SN12C) was −5.67 and the GI50 (SN12C; [4]) was 390 nM. For the same compound, the GI50 (SN12C; [5]) was 389 nM, the CC50 (SN12C; [6]) was over 100 µM and the GI50 (SF-268; [4]) was 380 nM. For the same compound, the GI50 (SF-268; [5]) was 389 nM, the CC50 (SF-268; [6]) was over 100 µM and the “Log10 TGI50” value (SF-268) was −5.74. The “Log10 TGI50” value (HT-29) was −5.96, the GI50 (HT-29; [4]) was 360 nM and the GI50 (HT-29; [5]) was 372 nM. For the same compound, the CC50 (HT-29; [6]) was 4.27 µM, the “Log10 TGI50” value (HCC-2998) was −5.92 and the GI50 (HCC-2998; [4]) was 340 nM. It also gave a GI50 (HCC-2998; [5]) of 347 nM and a CC50 (HCC-2998; [6]) of 6.31 µM.
